Test results taken from the supplement of paper PMC10307832.

Columns and labels:
Experiment in all cases: relative viability (nuclei count vs DMSO), 5 days (fraction); higher = more cells survive
Ponatinib + OSI-027 = compound: Cc1ccc(C(=O)Nc2ccc(CN3CCN(C)CC3)c(C(F)(F)F)c2)cc1C#Cc1cnc2cccnn12 [Ponatinib] + COc1cccc2cc(-c3nc([C@H]4CC[C@H](C(=O)O)CC4)n4ncnc(N)c34)[nH]c12 [OSI-027] (partner 0.5 µM)
How it was run: (§1)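 Medians of duplicate plates are given as relative viability. That measure is the nuclei count in treated wells divided by the count in vehicle wells. Counts were taken on 4× images of lung cancer cell lines in 1536-well plates, 5 days after pin-tool dosing the day after seeding with one drug alone or a fixed anchor-drug dose plus five library-drug doses (not always all listed) in √10 steps.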

Ponatinib + Decitabine = compound: Cc1ccc(C(=O)Nc2ccc(CN3CCN(C)CC3)c(C(F)(F)F)c2)cc1C#Cc1cnc2cccnn12 [Ponatinib] + Nc1ncn([C@H]2C[C@H](O)[C@@H](CO)O2)c(=O)n1 [Decitabine] (partner 2 µM)
How it was run: as §1

Pazopanib + OSI-027 = compound: Cc1ccc(Nc2nccc(N(C)c3ccc4c(C)n(C)nc4c3)n2)cc1S(N)(=O)=O [Pazopanib] + COc1cccc2cc(-c3nc([C@H]4CC[C@H](C(=O)O)CC4)n4ncnc(N)c34)[nH]c12 [OSI-027] (partner 0.5 µM)
How it was run: as §1

Ponatinib + Crizotinib = compound: Cc1ccc(C(=O)Nc2ccc(CN3CCN(C)CC3)c(C(F)(F)F)c2)cc1C#Cc1cnc2cccnn12 [Ponatinib] + C[C@@H](Oc1cc(-c2cnn(C3CCNCC3)c2)cnc1N)c1c(Cl)ccc(F)c1Cl [Crizotinib] (partner 1 µM)
How it was run: as §1

| Cell Line | relative viability (Ponatinib + OSI-027; first compound 0.002 µM) | relative viability (Ponatinib + OSI-027; first compound 0.006325 µM) | relative viability (Ponatinib + OSI-027; first compound 0.06325 µM) | relative viability (Ponatinib + OSI-027; first compound 0.2 µM) | relative viability (Ponatinib + Decitabine; first compound 0.002 µM) | relative viability (Ponatinib + Decitabine; first compound 0.006325 µM) | relative viability (Ponatinib + Decitabine; first compound 0.06325 µM) | relative viability (Ponatinib + Decitabine; first compound 0.2 µM) | relative viability (Pazopanib + OSI-027; first compound 0.01 µM) | relative viability (Pazopanib + OSI-027; first compound 0.03162 µM) | relative viability (Pazopanib + OSI-027; first compound 0.1 µM) | relative viability (Pazopanib + OSI-027; first compound 0.3162 µM) | relative viability (Pazopanib + OSI-027; first compound 1 µM) | relative viability (Ponatinib + Crizotinib; first compound 0.002 µM) | relative viability (Ponatinib + Crizotinib; first compound 0.006325 µM) | relative viability (Ponatinib + Crizotinib; first compound 0.06325 µM) | relative viability (Ponatinib + Crizotinib; first compound 0.2 µM) |
| --- | --- | --- | --- | --- | --- | --- | --- | --- | --- | --- | --- | --- | --- | --- | --- | --- | --- |
| NCI-H1975 | 0.602 | 0.575 | 0.47 | 0.503 | 0.386 | 0.425 | 0.413 | 0.437 | 0.677 | 0.723 | 0.861 | 0.735 | 0.734 | 0.929 | 1.02 | 1.01 | 0.943 |
| CAL-12T | 0.571 | 0.523 | 0.568 | 0.418 | – | – | – | – | 0.473 | 0.943 | 0.609 | 0.591 | 0.684 | 0.774 | 0.653 | 0.756 | 0.614 |
| NCI-H1623 | 0.446 | 0.432 | 0.418 | 0.447 | – | – | – | – | 0.415 | 0.401 | 0.421 | 0.448 | 0.411 | – | – | – | – |
| HCC-44 | 0.482 | 0.413 | 0.402 | 0.408 | 0.936 | 0.976 | 0.898 | 0.884 | 0.405 | 0.572 | 0.584 | 0.68 | 0.677 | 0.752 | 0.799 | 0.908 | 0.808 |
| EKVX | 0.66 | 0.729 | 0.829 | 0.706 | 0.329 | 0.366 | 0.378 | 0.357 | 0.664 | 0.741 | 0.642 | 0.691 | 0.788 | 0.789 | 0.995 | 1.09 | 1.02 |
| NCI-H1651 | 0.639 | 0.638 | 0.825 | 0.66 | 0.613 | 0.704 | 0.615 | 0.665 | 0.66 | 0.742 | 0.728 | 0.715 | 0.871 | 0.835 | 0.852 | 0.897 | 0.876 |
| NCI-H2170 | 0.698 | 0.724 | 0.749 | 0.694 | 0.508 | 0.481 | 0.467 | 0.431 | 0.728 | 0.695 | 0.719 | 0.703 | 0.655 | 1.13 | 1.15 | 1.22 | 1.17 |
| NCI-H1703 | – | – | – | – | – | – | – | – | – | – | – | – | – | 0.588 | 0.693 | 0.254 | 0.172 |
| Calu-6 | – | – | – | – | – | – | – | – | – | – | – | – | – | 0.701 | 0.73 | 0.805 | 0.763 |
| EBC-1 | – | – | – | – | – | – | – | – | – | – | – | – | – | 0.179 | 0.214 | 0.208 | 0.192 |
| A-427 | 0.49 | 0.429 | 0.396 | 0.215 | 0.547 | 0.507 | 0.592 | 0.49 | 0.512 | 0.481 | 0.462 | 0.516 | 0.448 | 0.875 | 1.02 | 0.838 | 0.743 |
| NCI-H2405 | 0.613 | 0.642 | 0.605 | 0.631 | 0.762 | 0.754 | 0.821 | 0.685 | 0.628 | 0.67 | 0.72 | 0.656 | 0.736 | 0.75 | 0.917 | 0.821 | 0.732 |
| NCI-H1355 | 0.409 | 0.48 | 0.43 | 0.385 | 0.335 | 0.355 | 0.399 | 0.346 | 0.37 | 0.441 | 0.396 | 0.423 | 0.477 | 0.989 | 1.06 | 1.16 | 1.15 |
| SK-MES-1 | 0.566 | 0.653 | 0.717 | 0.537 | 0.392 | 0.334 | 0.419 | 0.372 | 0.643 | 0.629 | 0.654 | 0.585 | 0.578 | 0.978 | 1 | 1.04 | 0.92 |
| RERF-LC-KJ | 0.603 | 0.576 | 0.688 | 0.522 | 0.646 | 0.724 | 0.835 | 0.665 | 0.677 | 0.605 | 0.605 | 0.515 | 0.617 | 0.816 | 0.766 | 0.928 | 0.834 |
| NCI-H2228 | 0.474 | 0.431 | 0.705 | 0.376 | – | – | – | – | 0.518 | 0.495 | 0.532 | 0.507 | 0.655 | 0.434 | 0.41 | 0.385 | 0.234 |
| HOP-62 | 0.727 | 0.759 | 0.883 | 0.72 | 0.213 | 0.168 | 0.21 | 0.183 | 0.787 | 0.869 | 0.871 | 0.879 | 0.727 | 0.876 | 0.94 | 0.901 | 0.917 |
| HARA | 0.435 | 0.497 | 0.476 | 0.393 | 0.486 | 0.632 | 0.568 | 0.665 | 0.581 | 0.583 | 0.504 | 0.642 | 0.6 | 0.972 | 1.01 | 0.973 | 1.02 |
| PC-14 | 0.747 | 0.778 | 0.933 | 0.699 | 0.214 | 0.222 | 0.232 | 0.214 | 0.871 | 0.937 | 1.06 | 0.849 | 1.01 | 0.866 | 0.901 | 0.966 | 0.946 |
| NCI-H1755 | 0.652 | 0.694 | 0.707 | 0.595 | 0.701 | 0.73 | 0.719 | 0.639 | 0.693 | 0.653 | 0.671 | 0.678 | 0.632 | 0.858 | 0.869 | 0.896 | 0.822 |
| HCC-78 | 0.332 | 0.418 | 0.366 | 0.528 | 0.653 | 0.757 | 0.668 | 0.577 | 0.361 | 0.423 | 0.348 | 0.411 | 0.371 | 0.291 | 0.322 | 0.447 | 0.312 |
| IA-LM | – | – | – | – | – | – | – | – | – | – | – | – | – | 0.6 | 0.737 | 0.887 | 0.7 |
